Drawing on the NIST ThermoML archive (doi:10.1021/je201102x), this text covers mass density and refractive index for five compounds.

As usually defined, the mass density is the mass of a sample divided by its volume. As usually defined, the refractive index is a measure of how strongly the sample bends light.

Numbers after ± are expanded uncertainties.

The conditions of data set [1]: 101.33 kPa, Liquid, Vibrating tube method.
Data set [2] is described as follows: refractive index (Na D-line) (dimensionless). The note with it: 293.15 K; 101.33 kPa; Liquid; Standard Abbe refractometry.

As for `CCC(=O)O` [propanoic acid], the mass density in data set [1] (293.15 K) is on record as 993.56 ± 0.09 kg/m3; in data set [1] (298.15 K), 988.15 ± 0.1 kg/m3; in data set [1] (303.15 K), 982.75 ± 0.1 kg/m3; in data set [1] (313.15 K), 971.96 ± 0.1 kg/m3; in data set [1] (323.15 K), 961.16 ± 0.11 kg/m3; in data set [1] (333.15 K), 950.35 ± 0.11 kg/m3. Also, in data set [2], the refractive index stood at 1.3835 ± 0.0008.
For the compound `CC(C)CO` [2-methyl-1-propanol], the mass density is recorded as 801.99 ± 0.24 kg/m3 in data set [1] (293.15 K); 798.13 ± 0.24 kg/m3 in data set [1] (298.15 K); 794.24 ± 0.24 kg/m3 in data set [1] (303.15 K); 786.28 ± 0.24 kg/m3 in data set [1] (313.15 K); 778.09 ± 0.24 kg/m3 in data set [1] (323.15 K); 769.6 ± 0.24 kg/m3 in data set [1] (333.15 K). For the same compound, the refractive index in data set [2] stood at 1.3929 ± 0.0008.
As to `CCC(C)O` (stereo not given) [butan-2-ol], the mass density came out at 806.75 ± 0.24 kg/m3 in data set [1] (293.15 K); 802.62 ± 0.24 kg/m3 in data set [1] (298.15 K); 798.43 ± 0.24 kg/m3 in data set [1] (303.15 K); 789.75 ± 0.24 kg/m3 in data set [1] (313.15 K); 780.65 ± 0.24 kg/m3 in data set [1] (323.15 K); 771.1 ± 0.24 kg/m3 in data set [1] (333.15 K). The refractive index in data set [2] came to 1.3943 ± 0.0008.
For `CC(=O)O` [acetic acid], the mass density in data set [1] (293.15 K) stood at 1049.31 ± 0.08 kg/m3; in data set [1] (298.15 K) it was 1043.65 ± 0.08 kg/m3; in data set [1] (303.15 K), 1037.99 ± 0.07 kg/m3; in data set [1] (313.15 K), 1026.68 ± 0.07 kg/m3; in data set [1] (323.15 K), 1015.36 ± 0.07 kg/m3; in data set [1] (333.15 K), 1004.01 ± 0.07 kg/m3. Besides, the refractive index in data set [2] turned out to be 1.3687 ± 0.0008.
Consider `CCC(C)(C)O` [2-methylbutan-2-ol], for which the mass density in data set [1] (293.15 K) turned out to be 808.98 ± 0.14 kg/m3; in data set [1] (298.15 K), 804.39 ± 0.15 kg/m3; in data set [1] (303.15 K), 799.75 ± 0.15 kg/m3; in data set [1] (313.15 K), 790.27 ± 0.15 kg/m3; in data set [1] (323.15 K), 780.46 ± 0.16 kg/m3; in data set [1] (333.15 K), 770.27 ± 0.16 kg/m3. In data set [2], the refractive index worked out at 1.4016 ± 0.0008.
